“And” between values parts separate entries of the source, which are not always exact repeats. Equal values may be shown once. Read-outs that look alike come from different tables or passages of the source.

Series [1] relates to topoisomerase II. The note with it: cited from earlier work.
Series [2] deals with T1, AChE (Electrophorus electricus, UniProt O42275).
T1 construct: AChE from electric eel and BChE from horse serum were used; from tissue; host or cells: electric eel
The series can be described thus: biochemical. On the set-up: species or system electric eel. To be noted: for remaining activity at 10 µM: read-out: Residual Activity at 10 µM (%) AChE.

The target in series [3] is T2, hMAO-A (Homo sapiens, UniProt P21397).
T2 sequence (P21397 1-527): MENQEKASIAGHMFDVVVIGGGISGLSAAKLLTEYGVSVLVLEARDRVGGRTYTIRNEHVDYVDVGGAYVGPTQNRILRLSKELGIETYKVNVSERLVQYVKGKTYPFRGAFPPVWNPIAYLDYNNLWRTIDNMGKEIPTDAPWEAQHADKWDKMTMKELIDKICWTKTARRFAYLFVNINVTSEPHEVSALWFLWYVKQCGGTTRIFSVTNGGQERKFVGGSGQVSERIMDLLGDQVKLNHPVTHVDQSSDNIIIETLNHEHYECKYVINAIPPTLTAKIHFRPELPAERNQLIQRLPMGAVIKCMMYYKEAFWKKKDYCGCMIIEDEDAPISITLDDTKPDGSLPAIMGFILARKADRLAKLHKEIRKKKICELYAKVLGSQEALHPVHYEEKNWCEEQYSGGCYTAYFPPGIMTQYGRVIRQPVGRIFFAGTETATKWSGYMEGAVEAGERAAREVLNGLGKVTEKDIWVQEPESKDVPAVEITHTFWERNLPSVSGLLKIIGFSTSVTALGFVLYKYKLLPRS
It is filed as biochemical. To be noted: for reversibility of hMAO-A inhibition: recovery test after dialysis; for residual hMAO-A activity after dialysis / residual hMAO-A activity before dialysis: ~2 × IC50: AT 0.040 µM, HAT 0.60 µM, MED 18.0 µM, toloxatone 2.0 µM, clorgyline 0.014 µM.

Series [4] has as its target T2, hMAO-A. The series can be described thus: biochemical. To be noted: for Residual Activity (%) hMAO-A: 1-µM concentration (footnote a); for inhibition type for hMAO-A: Lineweaver–Burk plot; for SI (selectivity index): hMAO-B/hMAO-A using IC50 values; for remaining activity at 2 µg/mL: read-out: Residual Activity at 2 µg/mL (%) hMAO-A. On the procedure: (§1) Human recombinant MAO-A and MAO-B were assayed in a reaction mixture of 0.5 mL containing 50 mM sodium phosphate buffer (pH 7.2) and the substrates (0.06 mM kynuramine for hMAO-A and 0.3 mM benzylamine for hMAO-B). […] [30, 31]. The reactions were started with the addition of substrates without preincubation of the enzyme and inhibitor.

Series [5] has as its target T3, hMAO-B (Homo sapiens, UniProt P27338).
T3 sequence (P27338 1-520): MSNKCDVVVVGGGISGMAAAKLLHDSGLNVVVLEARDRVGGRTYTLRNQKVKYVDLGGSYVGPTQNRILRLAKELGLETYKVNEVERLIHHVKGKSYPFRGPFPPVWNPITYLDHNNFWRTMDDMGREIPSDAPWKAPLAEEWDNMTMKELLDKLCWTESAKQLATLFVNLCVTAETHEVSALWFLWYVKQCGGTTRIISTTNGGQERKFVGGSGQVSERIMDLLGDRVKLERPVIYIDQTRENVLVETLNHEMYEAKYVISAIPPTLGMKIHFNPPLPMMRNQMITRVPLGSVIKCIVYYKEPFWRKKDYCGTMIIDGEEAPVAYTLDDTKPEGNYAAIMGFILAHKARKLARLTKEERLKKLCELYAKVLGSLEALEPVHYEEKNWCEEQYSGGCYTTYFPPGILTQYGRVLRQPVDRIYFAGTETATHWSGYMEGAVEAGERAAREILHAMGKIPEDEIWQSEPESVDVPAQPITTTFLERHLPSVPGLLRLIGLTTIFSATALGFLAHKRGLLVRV
Description: biochemical. To be noted: for Residual Activity (%) hMAO-B: 1-µM concentration (footnote a). On the procedure: as §1

In series [6] the target is BACE1 (Homo sapiens, UniProt P56817). The series can be described thus: BACE1 activity assay (fluorescence kit). The note with it: for IC50: IC50 BACE1; for remaining activity at 10 µM: read-out: Residual Activity at 10 µM (%) BACE1.
Description: Assays for inhibitory activities of compounds against hMAO-A, hMAO-B, AChE, BChE, and BACE1 were performed at 10-µM concentration of inhibitor.
The target in series [7] is T4, BChE (Equus caballus, UniProt P81908).
T4 construct: from tissue; host or cells: horse serum
The series can be described thus: biochemical. On the set-up: species or system horse. The note with it: read-out: Residual Activity at 10 µM (%) BChE. On the procedure: AChE from electric eel and BChE from horse serum were used for cholinesterases and assayed with a slight modification of the Ellman method. Shortly, after pre-incubating the enzyme and inhibitor for 15 min in 100 mM of sodium phosphate buffer (pH 7.5), 0.5 mM acetylthiocholine iodide (ATCI) or butyrylthiocholine iodide (BTCI) was added as a substrate for AChE or BChE assay, respectively. Then, 0.5 mM 5,5-dithiobis (2-nitrobenzoic acid) (DTNB) was added for color development for a final volume of 0.5 mL. Enzyme activity was measured for 15 min at room temperature in a kinetic mode at 412 nm.

The target of series [8] is T2, hMAO-A. The note with it: cited from earlier work.
For series [9], the target named is T3, hMAO-B. On the set-up: method as in PMID 33530616. The note with it: cited from earlier work.
Series [10] deals with MAO. To be noted: read-out: IC50 MAO inhibitory activity; cited from earlier work.

T1 sequence (O42275 24-633): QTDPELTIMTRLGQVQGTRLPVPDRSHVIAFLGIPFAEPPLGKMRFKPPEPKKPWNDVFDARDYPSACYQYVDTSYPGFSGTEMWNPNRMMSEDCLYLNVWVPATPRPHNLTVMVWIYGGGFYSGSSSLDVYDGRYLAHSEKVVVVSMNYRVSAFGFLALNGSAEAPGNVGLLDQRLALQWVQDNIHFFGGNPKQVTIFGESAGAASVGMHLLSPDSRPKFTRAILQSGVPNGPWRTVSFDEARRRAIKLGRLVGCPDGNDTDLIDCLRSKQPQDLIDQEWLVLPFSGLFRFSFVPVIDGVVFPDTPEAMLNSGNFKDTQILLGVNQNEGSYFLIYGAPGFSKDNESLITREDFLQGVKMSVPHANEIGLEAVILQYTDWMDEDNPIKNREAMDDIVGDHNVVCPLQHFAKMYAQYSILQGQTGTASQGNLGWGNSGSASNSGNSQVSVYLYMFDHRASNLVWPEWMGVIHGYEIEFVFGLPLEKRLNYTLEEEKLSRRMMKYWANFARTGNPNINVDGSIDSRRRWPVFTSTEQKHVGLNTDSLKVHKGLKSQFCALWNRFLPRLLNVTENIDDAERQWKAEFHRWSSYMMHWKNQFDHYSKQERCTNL
T4 sequence (P81908 whole entry): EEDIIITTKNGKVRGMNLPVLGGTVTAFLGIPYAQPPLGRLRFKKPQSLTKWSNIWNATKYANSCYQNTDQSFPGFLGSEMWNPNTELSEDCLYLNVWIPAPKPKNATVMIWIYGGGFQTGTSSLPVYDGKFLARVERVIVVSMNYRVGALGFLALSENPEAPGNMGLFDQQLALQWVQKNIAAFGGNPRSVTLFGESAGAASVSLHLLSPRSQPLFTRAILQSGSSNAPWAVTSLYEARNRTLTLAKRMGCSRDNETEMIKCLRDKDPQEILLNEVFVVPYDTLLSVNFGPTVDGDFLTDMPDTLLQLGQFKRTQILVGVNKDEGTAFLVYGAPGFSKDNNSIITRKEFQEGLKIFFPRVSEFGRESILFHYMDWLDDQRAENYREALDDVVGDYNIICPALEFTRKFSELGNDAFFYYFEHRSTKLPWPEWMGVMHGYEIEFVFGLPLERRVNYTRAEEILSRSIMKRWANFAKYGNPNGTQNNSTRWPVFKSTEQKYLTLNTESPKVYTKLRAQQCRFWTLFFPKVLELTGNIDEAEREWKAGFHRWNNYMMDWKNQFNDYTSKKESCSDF
BACE1, sequence (P56817 46-501): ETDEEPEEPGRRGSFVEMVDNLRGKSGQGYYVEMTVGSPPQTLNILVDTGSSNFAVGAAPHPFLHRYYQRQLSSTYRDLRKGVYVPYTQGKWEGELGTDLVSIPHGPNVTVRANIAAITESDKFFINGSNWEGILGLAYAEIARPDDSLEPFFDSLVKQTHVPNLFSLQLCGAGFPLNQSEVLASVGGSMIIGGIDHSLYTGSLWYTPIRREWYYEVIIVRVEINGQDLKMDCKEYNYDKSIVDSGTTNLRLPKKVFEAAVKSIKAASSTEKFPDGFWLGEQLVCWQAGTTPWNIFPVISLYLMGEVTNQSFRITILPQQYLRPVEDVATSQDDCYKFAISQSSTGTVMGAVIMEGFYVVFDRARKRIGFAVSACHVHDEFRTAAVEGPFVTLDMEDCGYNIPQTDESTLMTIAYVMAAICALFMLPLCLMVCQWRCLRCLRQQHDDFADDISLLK

Turning to `Cc1cc(O)cc2oc(=O)c3c(O)cc(O)cc3c12` [AT, alternariol], the “concentration at which ROS formation and topoisomerase II interaction relate to toxicity” value in series [1] is listed as more than 10 µM. In series [2], it took 10 ± 0.9 µM to reach half-maximal inhibition (IC50) and the remaining activity at 10 µM worked out at 58.7 ± 2%. In series [3], the “reversibility of hMAO-A inhibition” value is recorded as “reversible inhibitors”, the “residual hMAO-A activity after dialysis” value is reported as 60.5% and the “residual hMAO-A activity before dialysis” value turned out to be 33.5%. In addition, in [4], the Ki (commonly a dissociation constant, usually derived from enzyme kinetics or from competition with a known ligand) came out at 7.5 nM; the “times higher hMAO-A inhibitory activity than toloxatone” value is listed as 54.0 times; the “Residual Activity (%) hMAO-A” value was −3.1 ± 0.0%; the “inhibition type for hMAO-A” value is recorded as “reversible competitive inhibitors”. For the same molecule, in [4], the “SI (selectivity index)” value is reported as 1035 and the remaining activity at 2 µg/mL is -5.41 ± 0.98%. 0.02 ± 0.001 µM corresponded to half-maximal inhibition in series [4] (IC50 hMAO-A) (IC50). In series [5], the concentration for half-maximal inhibition (IC50) (usually the concentration that inhibits the measured activity by half) came out at 20.7 ± 2.2 µM and the “Residual Activity (%) hMAO-B” value is given as 75.6 ± 2.3%. Also, in series [6], the IC50 worked out at 36.7 ± 3.3 µM and the remaining activity at 10 µM turned out to be 80.9 ± 0.2%. Also, the remaining activity at 10 µM in series [7] is 93.3 ± 4.1%.

For `Cc1c(O)c(O)cc2oc(=O)c3c(O)cc(O)cc3c12` [HAT, 5′-hydroxy-alternariol], in series [2], the IC50 was determined as 19.9 ± 0.2 µM and the remaining activity at 10 µM was 65.6 ± 3.8%. In addition, in [3], the “reversibility of hMAO-A inhibition” value is reported as “reversible inhibitors”, the “residual hMAO-A activity after dialysis” value is recorded as 79.4% and the “residual hMAO-A activity before dialysis” value is listed as 42.1%. Further, in series [4], the Ki was found to be 116 nM, the “times higher hMAO-A inhibitory activity than toloxatone” value was determined as 3.5 times, the “Residual Activity (%) hMAO-A” value is recorded as 17.7 ± 1.1% and the “inhibition type for hMAO-A” value is “reversible competitive inhibitors”. For the same molecule, in [4], the “SI (selectivity index)” value is on record as more than 129 and the remaining activity at 2 µg/mL stood at 3.39 ± 3.43%. The same molecule returned an IC50 in series [4] (IC50 hMAO-A) of 0.31 ± 0.02 µM. Also, in series [4] (ratio of IC50 values), the “times effective against hMAO-A than alternariol monomethyl ether” value is on record as 5.5 times. For the same molecule, in series [5], the IC50 was more than 40 µM and the “Residual Activity (%) hMAO-B” value worked out at 83.3 ± 4.0%. Moreover, in series [6], half-maximal inhibition (IC50) required 24.7 µM and the remaining activity at 10 µM turned out to be 71.3 ± 3.8%. Besides, the remaining activity at 10 µM in [7] came out at 96.2 ± 2.3%.

Take `CC(=O)O[C@H]1C=CC(=O)O[C@H]1[C@@H]1[C@H](C)[C@H]2C=CC=C[C@@H]1O2` [MED, mycoepoxydiene]: the IC50 is 18.6 ± 1.3 µM in series [2] (read-out: IC50 AChE); 8.68 µM and 8.7 µM in series [4] (read-out: IC50 hMAO-A); more than 40 µM in [5] (read-out: IC50 hMAO-B); 35.9 ± 0.3 µM in series [6]. For the same molecule, the remaining activity at 10 µM in [2] was found to be 65.2 ± 2.7%; in [4] (read-out: Residual Activity at 10 µM (%) hMAO-A), 42.7 ± 0.9%; in series [5] (read-out: Residual Activity at 10 µM (%) hMAO-B), 85.4 ± 6.9%; in [6], 80.5 ± 2.7%; in [7] it was 95.5 ± 5.5%. Further, in series [3], the “reversibility of hMAO-A inhibition” value was “reversible inhibitors”. Also, the “residual hMAO-A activity after dialysis” value in series [3] was determined as 83.7%. For the same molecule, the “residual hMAO-A activity before dialysis” value in series [3] worked out at 28.7%. Also, the “inhibition type for hMAO-A” value in [4] is recorded as “reversible competitive inhibitors”. The Ki in [4] (Lineweaver–Burk secondary plot, read-out: Ki hMAO-A) was 3760 nM. The “SI (selectivity index)” value in series [4] was more than 4.59. Moreover, the remaining activity at 2 µg/mL in series [4] (isolated compounds from ELF29, 2 µg/mL) was determined as 66.7 ± 1.84%.

Turning to `COc1cc(O)c2c(=O)oc3cc(O)cc(C)c3c2c1` [alternariol monomethyl ether], in [8], the IC50 was 1.71 µM.

As to `CC1CC(=O)c2c(O)cccc2O1` (centres unmarked) [hydroxy-2-methyl-chroman-4-one], the IC50 in series [9] was 3.23 µM; in [8], 14 µM.

For the molecule `CCCCCC(=O)c1c(O)cc2c(c1O)C(=O)c1c(O)cc(OC)cc1C2=O` [solorinic acid], the IC50 in [10] was 14.3 µM.

Values taken from publication PMC8541017, “Potent and Selective Inhibitors of Human Monoamine Oxidase A from an Endogenous Lichen Fungus Diaporthe mahothocarpus” (Journal of Fungi, 2021).
